The values that follow come from patent EP0428486B1, “Polymyxin conjugates” (SANDOZ LTD., priority 1989, dated 1991).

For data set [1], the system named is E.coli 0111B4 endotoxin. Description: Endotoxin-induced lethality test, i.v. treatment, Example 4. It is filed as in vivo. As to conditions: i.v. injection 1-3 minutes before an LD90 i.p. injection of E.coli 0111B4 endotoxin (0.5 µg/kg).
In data set [2] the test system is endotoxin (0111B₄). Description: PMB anti-endotoxin evaluation (endotoxin-induced lethality in galactosamine-hypersensitized mice), i.p. It is filed as in vivo, Male CB57BL/c mice. The method, then:
(§1) As used herein the following definitions apply: • LD₀ is the highest non-toxic dose of PMB or its conjugate; • LD₁₀₀ is the dose of PMB or its conjugated form which results in 90-100% lethality when injected into a normal test animal; • PD₁₀₀ is the dose of polymyxin B or its conjugated form which, when injected into a hypersensitized test animal, results in at least 95 % survival; • Therapeutic Index (TI) is calculated by dividing LD₁₀₀ by PD₁₀₀.
Male CB57BL/c mice (18-22 g, Jackson Labs) are used throughout this study. Animals are given endotoxin (0111B₄ from List Biologicals, Palo Alto, CA, USA) and galactosamine to hypersensitize, as described in Galanos et al., Proc. Natl. Acad. Sci. USA 76 (1979) 5939. The endotoxin and galactosamine (320 mg/kg) are injected intraperitoneally in 0.5 ml pyrogen-free isotonic saline per animal between 13:00 and 15:00 to avoid diurnal variation. From a dose-response study, it is determined that 0.01 mg/kg endotoxin produces 85-95 % lethality. Animals are observed each day for 6 days after injection.
PMB (native and conjugated forms) are evaluated for their ability to neutralize endotoxin by either pre-mixing with endotoxin for 60 minutes before i.p. injection or by coadministration of the substances as a single i.p. injection. […]

Data set [3] deals with non-sensitized mice. The experiment in a line: PMB (native and conjugated forms) induced lethality, i.p. It is filed as in vivo, Male CB57BL/c mice. The following applies: intraperitoneal injection, lethality monitored for 7 days. As to the method: as §1
PMB (native and conjugated forms) are evaluated for their inherent toxicity in non-sensitized mice. Male CB57BL/c mice (18-22 g, Jackson Labs) are used throughout this study. Animals are given either native PMB or conjugated PMB by intraperitoneal injection (0.5 ml/animal) and lethality is monitored for 7 days. The LD₁₀₀ is determined by varying the dose of PMB (native and conjugated forms) that result in 100 % lethality. From 10 to 20 animals are used for each dose.

Data set [4] in a line: Toxicity (lethality) after i.v. injection, Example 4. It is filed as in vivo. As to the method: The ultra-pure PMB-conjugate has an LD₀ of > 100 mg/kg and it has not been possible to establish an LD₁₀₀ due to its inherent non-toxicity. Comparisons in the table below are made between the highest non-toxic dose of PMB (native or conjugated): […]

On to polymyxin B [Native PMB], for which the PD₁₀₀ in data set [1] amounted to 0.1 mg/kg; in data set [2] (PMB or conjugate allowed to react with the endotoxin for 60 min before i.p. injection) it was 2 mg/kg; in data set [2] (i.p., hypersensitized mice (galactosamine 320 mg/kg, endotoxin 0.01 mg/kg), pre-mixing or coadministration not stated for these rows), 2 mg/kg. For the same substance, in data set [3], the LD₁₀₀ amounted to 25 mg/kg. Also, the LD₁₀₀ i.v. in data set [4] (i.v.) worked out at 9.5 mg/kg. Besides, the LD₀ in data set [4] (i.v. injection, lethality monitored over 7 days, highest non-toxic dose) turned out to be 5 mg/kg.
